Test results published in the supplement of paper PMC12076712.

Tests used:
Assay in all cases: pIC50, kinobeads binding competition
Conditions in all cases: cell material: Jurkat lysate
LIMK2 = LIMK2 (UniProt P53671)
TESK1 = TESK1 (UniProt Q15569)
NEK7 = NEK7 (UniProt Q8TDX7)
EPHB6 = molecular target: T1, EPHB6 (UniProt O15197)
T1 sequence (whole entry): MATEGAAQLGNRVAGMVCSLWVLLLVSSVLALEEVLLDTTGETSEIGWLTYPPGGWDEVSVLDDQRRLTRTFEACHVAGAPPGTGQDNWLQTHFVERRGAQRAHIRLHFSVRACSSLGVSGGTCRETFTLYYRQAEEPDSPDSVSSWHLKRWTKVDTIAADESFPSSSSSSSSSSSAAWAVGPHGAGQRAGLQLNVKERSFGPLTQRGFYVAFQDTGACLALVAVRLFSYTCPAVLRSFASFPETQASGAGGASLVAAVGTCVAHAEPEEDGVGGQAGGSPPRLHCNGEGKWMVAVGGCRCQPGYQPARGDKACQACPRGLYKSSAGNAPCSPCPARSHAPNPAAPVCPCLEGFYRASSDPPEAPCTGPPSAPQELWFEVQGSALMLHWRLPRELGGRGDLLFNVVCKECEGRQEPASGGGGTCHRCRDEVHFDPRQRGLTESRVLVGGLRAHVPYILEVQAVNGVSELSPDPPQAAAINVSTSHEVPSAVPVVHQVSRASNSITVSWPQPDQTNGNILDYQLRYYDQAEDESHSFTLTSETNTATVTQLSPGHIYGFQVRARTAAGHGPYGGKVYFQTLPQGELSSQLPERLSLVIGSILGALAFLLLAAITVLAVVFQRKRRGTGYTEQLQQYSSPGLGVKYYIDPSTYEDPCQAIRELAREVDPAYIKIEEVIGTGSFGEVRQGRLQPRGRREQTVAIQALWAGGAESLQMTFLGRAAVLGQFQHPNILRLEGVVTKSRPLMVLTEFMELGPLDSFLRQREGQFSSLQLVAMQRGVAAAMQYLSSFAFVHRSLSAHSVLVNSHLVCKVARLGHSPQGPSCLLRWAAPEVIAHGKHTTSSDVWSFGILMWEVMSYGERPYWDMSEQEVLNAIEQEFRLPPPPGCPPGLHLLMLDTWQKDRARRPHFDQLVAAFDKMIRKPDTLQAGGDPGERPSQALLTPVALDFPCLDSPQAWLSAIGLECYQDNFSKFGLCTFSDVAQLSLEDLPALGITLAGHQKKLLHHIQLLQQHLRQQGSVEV

UniProt O75460 = molecular target: UniProt O75460
WEE1 = WEE1 (UniProt P30291)
RIOK1 = molecular target: T2, RIOK1 (UniProt Q9BRS2)
T2 sequence (whole entry): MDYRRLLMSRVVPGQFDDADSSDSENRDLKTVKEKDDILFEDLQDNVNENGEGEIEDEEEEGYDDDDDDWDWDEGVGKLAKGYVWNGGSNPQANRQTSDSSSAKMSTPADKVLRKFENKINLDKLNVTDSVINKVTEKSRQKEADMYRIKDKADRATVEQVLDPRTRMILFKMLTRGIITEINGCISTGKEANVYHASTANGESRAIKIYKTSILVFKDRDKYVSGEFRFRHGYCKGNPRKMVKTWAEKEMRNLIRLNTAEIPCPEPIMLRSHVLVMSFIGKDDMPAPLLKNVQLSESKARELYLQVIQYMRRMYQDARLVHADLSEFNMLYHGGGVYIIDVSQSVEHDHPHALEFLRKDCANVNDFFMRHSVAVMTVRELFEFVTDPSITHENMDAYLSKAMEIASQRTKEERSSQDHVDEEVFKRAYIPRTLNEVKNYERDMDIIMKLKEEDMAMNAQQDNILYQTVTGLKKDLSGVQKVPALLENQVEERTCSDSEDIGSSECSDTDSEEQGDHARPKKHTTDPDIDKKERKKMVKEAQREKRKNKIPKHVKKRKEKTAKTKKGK

UniProt O15530 = molecular target: T3, UniProt O15530
T3 sequence (whole entry): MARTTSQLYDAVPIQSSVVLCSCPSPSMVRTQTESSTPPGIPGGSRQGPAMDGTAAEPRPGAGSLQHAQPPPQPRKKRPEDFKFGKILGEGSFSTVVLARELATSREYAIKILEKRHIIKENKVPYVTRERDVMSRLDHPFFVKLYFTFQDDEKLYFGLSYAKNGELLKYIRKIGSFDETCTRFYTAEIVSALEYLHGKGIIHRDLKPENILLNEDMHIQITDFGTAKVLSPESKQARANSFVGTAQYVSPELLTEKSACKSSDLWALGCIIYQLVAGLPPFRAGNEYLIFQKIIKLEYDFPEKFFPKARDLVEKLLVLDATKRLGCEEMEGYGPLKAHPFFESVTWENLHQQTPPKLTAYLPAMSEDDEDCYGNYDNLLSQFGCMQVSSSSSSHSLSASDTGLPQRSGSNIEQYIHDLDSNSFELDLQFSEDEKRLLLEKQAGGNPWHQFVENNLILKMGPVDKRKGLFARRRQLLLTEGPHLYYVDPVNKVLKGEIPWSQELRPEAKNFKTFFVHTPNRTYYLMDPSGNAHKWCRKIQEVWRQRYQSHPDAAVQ

FGR = FGR (UniProt P09769)

Measured: pIC50

NEK7, sequence (Q8TDX7 whole entry, looked up): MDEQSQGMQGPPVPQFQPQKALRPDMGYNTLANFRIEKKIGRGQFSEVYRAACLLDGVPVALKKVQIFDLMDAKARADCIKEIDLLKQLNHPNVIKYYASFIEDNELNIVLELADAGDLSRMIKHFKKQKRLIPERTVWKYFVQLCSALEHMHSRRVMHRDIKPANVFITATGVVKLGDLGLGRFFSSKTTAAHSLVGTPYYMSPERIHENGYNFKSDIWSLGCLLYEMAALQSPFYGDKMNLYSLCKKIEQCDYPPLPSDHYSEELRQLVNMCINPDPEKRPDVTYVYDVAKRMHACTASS
LIMK2, sequence (P53671 whole entry, looked up): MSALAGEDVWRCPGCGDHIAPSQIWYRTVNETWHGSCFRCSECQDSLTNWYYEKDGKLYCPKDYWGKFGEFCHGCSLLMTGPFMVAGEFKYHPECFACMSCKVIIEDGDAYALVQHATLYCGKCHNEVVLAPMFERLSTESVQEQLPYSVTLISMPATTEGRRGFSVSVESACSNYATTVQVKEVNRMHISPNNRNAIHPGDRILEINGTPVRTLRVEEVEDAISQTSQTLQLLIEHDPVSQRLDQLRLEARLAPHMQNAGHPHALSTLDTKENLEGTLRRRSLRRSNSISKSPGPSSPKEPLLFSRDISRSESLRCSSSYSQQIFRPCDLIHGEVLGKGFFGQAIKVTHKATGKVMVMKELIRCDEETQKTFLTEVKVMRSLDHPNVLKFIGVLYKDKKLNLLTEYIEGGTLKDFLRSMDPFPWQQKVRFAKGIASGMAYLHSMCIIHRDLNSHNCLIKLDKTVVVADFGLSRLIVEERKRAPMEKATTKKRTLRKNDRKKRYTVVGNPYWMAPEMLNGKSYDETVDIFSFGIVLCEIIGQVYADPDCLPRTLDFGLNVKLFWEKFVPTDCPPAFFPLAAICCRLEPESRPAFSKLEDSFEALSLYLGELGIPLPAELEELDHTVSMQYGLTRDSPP
UniProt O75460, sequence (O75460 whole entry, looked up): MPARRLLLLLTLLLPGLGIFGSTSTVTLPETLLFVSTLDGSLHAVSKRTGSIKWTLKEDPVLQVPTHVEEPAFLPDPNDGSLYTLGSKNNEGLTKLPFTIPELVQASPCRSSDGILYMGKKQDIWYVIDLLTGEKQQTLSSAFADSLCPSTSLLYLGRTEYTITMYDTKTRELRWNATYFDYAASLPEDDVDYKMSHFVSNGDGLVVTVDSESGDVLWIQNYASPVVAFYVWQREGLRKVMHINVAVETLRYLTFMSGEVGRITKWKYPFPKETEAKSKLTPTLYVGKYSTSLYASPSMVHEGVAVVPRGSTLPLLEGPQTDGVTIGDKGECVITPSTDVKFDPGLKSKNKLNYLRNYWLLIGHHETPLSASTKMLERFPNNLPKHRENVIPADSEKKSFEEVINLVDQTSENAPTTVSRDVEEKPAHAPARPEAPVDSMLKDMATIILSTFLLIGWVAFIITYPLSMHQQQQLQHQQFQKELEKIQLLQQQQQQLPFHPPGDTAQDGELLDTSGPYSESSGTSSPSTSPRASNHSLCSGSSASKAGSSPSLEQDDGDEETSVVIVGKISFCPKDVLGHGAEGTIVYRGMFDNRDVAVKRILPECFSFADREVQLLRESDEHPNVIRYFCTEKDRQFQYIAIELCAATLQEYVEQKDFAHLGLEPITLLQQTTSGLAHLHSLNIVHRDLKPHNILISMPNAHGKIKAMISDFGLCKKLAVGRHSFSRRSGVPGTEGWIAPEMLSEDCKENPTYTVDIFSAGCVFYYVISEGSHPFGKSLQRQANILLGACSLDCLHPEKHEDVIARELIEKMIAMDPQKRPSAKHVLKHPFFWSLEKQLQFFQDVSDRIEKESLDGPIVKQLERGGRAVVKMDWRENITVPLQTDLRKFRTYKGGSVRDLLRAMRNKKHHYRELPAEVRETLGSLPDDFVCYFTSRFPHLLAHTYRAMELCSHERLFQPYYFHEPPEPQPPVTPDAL
FGR, sequence (P09769 whole entry, looked up): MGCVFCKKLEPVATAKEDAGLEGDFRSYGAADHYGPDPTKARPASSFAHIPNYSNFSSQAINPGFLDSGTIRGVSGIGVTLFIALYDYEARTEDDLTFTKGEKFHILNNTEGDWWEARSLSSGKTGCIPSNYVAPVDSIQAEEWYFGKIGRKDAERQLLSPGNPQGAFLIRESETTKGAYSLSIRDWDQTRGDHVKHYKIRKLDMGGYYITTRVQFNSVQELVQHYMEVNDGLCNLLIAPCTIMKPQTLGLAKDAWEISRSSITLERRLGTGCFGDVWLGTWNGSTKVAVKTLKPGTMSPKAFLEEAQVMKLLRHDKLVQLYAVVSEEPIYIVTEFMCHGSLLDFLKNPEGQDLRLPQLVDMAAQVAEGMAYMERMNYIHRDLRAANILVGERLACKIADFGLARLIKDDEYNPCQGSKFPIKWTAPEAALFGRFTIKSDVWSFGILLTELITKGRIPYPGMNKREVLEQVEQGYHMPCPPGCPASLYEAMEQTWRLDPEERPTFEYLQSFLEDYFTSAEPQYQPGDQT
WEE1, sequence (P30291 whole entry, looked up): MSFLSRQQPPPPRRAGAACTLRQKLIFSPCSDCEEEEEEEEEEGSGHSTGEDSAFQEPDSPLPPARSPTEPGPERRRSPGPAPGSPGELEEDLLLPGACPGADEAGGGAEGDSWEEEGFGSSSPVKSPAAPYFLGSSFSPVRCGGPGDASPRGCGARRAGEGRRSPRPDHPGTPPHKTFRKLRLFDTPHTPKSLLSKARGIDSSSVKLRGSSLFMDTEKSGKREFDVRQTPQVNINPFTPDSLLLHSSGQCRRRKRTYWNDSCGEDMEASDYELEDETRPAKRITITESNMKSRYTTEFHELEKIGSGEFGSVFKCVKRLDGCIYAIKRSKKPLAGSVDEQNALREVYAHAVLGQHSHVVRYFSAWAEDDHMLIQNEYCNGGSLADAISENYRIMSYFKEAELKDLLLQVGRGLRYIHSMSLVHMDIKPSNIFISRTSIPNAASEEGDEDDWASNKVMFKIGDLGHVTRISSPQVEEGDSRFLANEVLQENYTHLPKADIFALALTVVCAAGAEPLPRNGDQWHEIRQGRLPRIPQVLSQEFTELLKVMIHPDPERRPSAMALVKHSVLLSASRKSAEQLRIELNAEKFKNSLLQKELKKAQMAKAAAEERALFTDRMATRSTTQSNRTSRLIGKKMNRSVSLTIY
TESK1, sequence (Q15569 whole entry, looked up): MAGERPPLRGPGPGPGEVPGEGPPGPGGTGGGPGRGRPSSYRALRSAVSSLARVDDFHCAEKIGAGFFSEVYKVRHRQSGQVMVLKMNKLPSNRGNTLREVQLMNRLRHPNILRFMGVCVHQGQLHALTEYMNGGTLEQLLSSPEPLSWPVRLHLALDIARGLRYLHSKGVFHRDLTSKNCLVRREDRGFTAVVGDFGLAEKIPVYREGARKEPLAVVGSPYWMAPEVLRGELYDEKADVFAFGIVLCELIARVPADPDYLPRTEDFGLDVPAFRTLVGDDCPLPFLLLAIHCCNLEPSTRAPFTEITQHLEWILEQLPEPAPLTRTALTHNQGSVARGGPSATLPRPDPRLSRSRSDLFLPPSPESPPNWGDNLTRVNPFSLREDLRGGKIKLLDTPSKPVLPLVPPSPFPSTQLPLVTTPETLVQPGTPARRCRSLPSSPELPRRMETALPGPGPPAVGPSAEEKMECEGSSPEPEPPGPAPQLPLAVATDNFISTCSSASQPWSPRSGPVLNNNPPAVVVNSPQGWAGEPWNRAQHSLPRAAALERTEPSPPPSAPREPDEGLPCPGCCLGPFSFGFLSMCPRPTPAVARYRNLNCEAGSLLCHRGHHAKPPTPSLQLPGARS

CCc1cnn2c(NCc3ccc[n+]([O-])c3)cc(N3CCCC[C@H]3CCO)nc12 [dinaciclib]
< 4.52: all assays above
